Test results taken from ChEMBL document CHEMBL2429821, “A Casein kinase 1/Checkpoint kinase 1 pyrazolo-pyridine protein kinase inhibitor as novel activator of the p53 pathway” (Bioorg Med Chem Lett, 2013).

What was measured:
[1] = target: Insulin-like growth factor 1 receptor (Homo sapiens) (UniProt P08069); assay: Inhibition of human IGF-1R assessed as residual activity at 1 uM relative to control
[2] = target: Tyrosine-protein kinase Yes (Homo sapiens) (UniProt P07947); assay: Inhibition of human YES1 assessed as residual activity at 10 uM relative to control
[3] = target: Maternal embryonic leucine zipper kinase (Homo sapiens) (UniProt Q14680); assay: Inhibition of human MELK assessed as residual activity at 1 uM relative to control
[4] = target: Casein kinase II (Homo sapiens) (UniProt P67870+P68400+P19784); assay: Inhibition of human CK2 assessed as residual activity at 10 uM relative to control; assay type: protein-complex assay
[5] = target: Ribosomal protein S6 kinase alpha-5 (Homo sapiens) (UniProt O75582); assay: Inhibition of human MSK1 assessed as residual activity at 1 uM relative to control
[6] = target: Tyrosine-protein kinase CSK (Homo sapiens) (UniProt P41240); assay: Inhibition of human CSK assessed as residual activity at 1 uM relative to control
[7] = species: Rattus norvegicus; assay: Inhibition of rat AMPK assessed as residual activity at 1 uM relative to control
[8] = species: Bos taurus; assay: Inhibition of cow PKA assessed as residual activity at 10 uM relative to control
[9] = target: T1, Inhibitor of nuclear factor kappa-B kinase subunit epsilon (Homo sapiens) (UniProt Q14164); assay: Inhibition of human IKKepsilon assessed as residual activity at 1 uM relative to control
T1 sequence (whole entry): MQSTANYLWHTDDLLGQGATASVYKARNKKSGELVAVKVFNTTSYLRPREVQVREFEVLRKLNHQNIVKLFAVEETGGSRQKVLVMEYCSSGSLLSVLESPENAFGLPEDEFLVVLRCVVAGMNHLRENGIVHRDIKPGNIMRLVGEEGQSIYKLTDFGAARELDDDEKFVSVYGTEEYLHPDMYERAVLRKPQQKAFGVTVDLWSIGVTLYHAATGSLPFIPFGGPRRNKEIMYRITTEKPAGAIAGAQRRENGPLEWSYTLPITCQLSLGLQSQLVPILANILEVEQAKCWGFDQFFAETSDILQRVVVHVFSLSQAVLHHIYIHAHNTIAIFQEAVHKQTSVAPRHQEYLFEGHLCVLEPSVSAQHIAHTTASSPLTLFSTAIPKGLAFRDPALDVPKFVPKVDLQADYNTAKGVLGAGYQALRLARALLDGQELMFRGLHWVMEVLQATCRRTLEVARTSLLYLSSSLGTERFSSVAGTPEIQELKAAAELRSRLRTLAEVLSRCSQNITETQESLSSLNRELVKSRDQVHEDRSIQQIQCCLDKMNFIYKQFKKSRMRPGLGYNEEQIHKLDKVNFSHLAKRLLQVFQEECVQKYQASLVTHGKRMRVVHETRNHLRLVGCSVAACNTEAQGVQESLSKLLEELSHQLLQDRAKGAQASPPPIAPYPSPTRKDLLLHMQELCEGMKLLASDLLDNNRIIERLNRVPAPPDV

[10] = target: MAP/microtubule affinity-regulating kinase 3 (Homo sapiens) (UniProt P27448); assay: Inhibition of human MARK3 assessed as residual activity at 1 uM relative to control
[11] = target: Proto-oncogene tyrosine-protein kinase Src (Homo sapiens) (UniProt P12931); assay: Inhibition of human SRC assessed as residual activity at 1 uM relative to control
[12] = target: Insulin receptor (Homo sapiens) (UniProt P06213); assay: Inhibition of human IR assessed as residual activity at 1 uM relative to control
[13] = target: Ribosomal protein S6 kinase alpha-3 (Homo sapiens) (UniProt P51812); assay: Inhibition of human RSK2 assessed as residual activity at 1 uM relative to control
[14] = target: Insulin receptor-related protein (Homo sapiens) (UniProt P14616); assay: Inhibition of human IRR assessed as residual activity at 1 uM relative to control
[15] = target: Ribosomal protein S6 kinase alpha-3 (Homo sapiens) (UniProt P51812); assay: Inhibition of human RSK2 assessed as residual activity at 10 uM relative to control
[16] = target: Dual specificity tyrosine-phosphorylation-regulated kinase 1A (Rattus norvegicus) (UniProt Q63470); assay: Inhibition of rat DYRK1alpha assessed as residual activity at 1 uM relative to control
[17] = target: Protein kinase C alpha type (Homo sapiens) (UniProt P17252); assay: Inhibition of human PKCalpha assessed as residual activity at 10 uM relative to control
[18] = target: SRSF protein kinase 1 (Homo sapiens) (UniProt Q96SB4); assay: Inhibition of human SRPK1 assessed as residual activity at 10 uM relative to control
[19] = target: Aurora kinase B (Homo sapiens) (UniProt Q96GD4); assay: Inhibition of human Aurora-B assessed as residual activity at 1 uM relative to control
[20] = species: Oryctolagus cuniculus; assay: Inhibition of rabbit MKK1 assessed as residual activity at 10 uM relative to control
[21] = target: Ribosomal protein S6 kinase beta-1 (Homo sapiens) (UniProt P23443); assay: Inhibition of human S6K1 assessed as residual activity at 10 uM relative to control
[22] = target: Serine/threonine-protein kinase Nek6 (Homo sapiens) (UniProt Q9HC98); assay: Inhibition of human NEK6 assessed as residual activity at 1 uM relative to control
[23] = target: MAP kinase-interacting serine/threonine-protein kinase 1 (Homo sapiens) (UniProt Q9BUB5); assay: Inhibition of human MNK1 assessed as residual activity at 10 uM relative to control
[24] = target: Maternal embryonic leucine zipper kinase (Homo sapiens) (UniProt Q14680); assay: Inhibition of human MELK assessed as residual activity at 10 uM relative to control
[25] = target: Ribosomal protein S6 kinase beta-1 (Homo sapiens) (UniProt P23443); assay: Inhibition of human S6K1 assessed as residual activity at 1 uM relative to control
[26] = target: Cyclin-dependent kinase 2 (Homo sapiens) (UniProt P24941); assay: Inhibition of human CDK2 assessed as residual activity at 10 uM relative to control
[27] = target: Mitogen-activated protein kinase 9 (Homo sapiens) (UniProt P45984); assay: Inhibition of human JNK2 assessed as residual activity at 10 uM relative to control
[28] = target: Tyrosine-protein kinase SYK (Homo sapiens) (UniProt P43405); assay: Inhibition of human SYK assessed as residual activity at 10 uM relative to control

Tyrosine-protein kinase Yes (Homo sapiens), sequence (P07947 2-543 limits assumed): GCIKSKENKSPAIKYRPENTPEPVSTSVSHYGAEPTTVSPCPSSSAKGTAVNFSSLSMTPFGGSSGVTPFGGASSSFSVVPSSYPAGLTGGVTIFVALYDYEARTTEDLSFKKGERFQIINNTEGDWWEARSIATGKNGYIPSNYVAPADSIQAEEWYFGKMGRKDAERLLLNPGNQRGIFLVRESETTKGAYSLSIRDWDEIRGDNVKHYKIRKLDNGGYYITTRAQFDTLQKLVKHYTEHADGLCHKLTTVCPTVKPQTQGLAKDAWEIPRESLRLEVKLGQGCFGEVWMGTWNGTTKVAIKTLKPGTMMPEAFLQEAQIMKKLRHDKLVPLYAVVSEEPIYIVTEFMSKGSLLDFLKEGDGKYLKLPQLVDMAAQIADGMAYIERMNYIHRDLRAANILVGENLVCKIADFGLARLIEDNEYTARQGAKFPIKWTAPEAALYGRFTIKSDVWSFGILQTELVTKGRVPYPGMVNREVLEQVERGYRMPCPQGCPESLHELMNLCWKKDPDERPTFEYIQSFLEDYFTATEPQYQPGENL
Ribosomal protein S6 kinase alpha-3 (Homo sapiens), sequence (P51812 whole entry): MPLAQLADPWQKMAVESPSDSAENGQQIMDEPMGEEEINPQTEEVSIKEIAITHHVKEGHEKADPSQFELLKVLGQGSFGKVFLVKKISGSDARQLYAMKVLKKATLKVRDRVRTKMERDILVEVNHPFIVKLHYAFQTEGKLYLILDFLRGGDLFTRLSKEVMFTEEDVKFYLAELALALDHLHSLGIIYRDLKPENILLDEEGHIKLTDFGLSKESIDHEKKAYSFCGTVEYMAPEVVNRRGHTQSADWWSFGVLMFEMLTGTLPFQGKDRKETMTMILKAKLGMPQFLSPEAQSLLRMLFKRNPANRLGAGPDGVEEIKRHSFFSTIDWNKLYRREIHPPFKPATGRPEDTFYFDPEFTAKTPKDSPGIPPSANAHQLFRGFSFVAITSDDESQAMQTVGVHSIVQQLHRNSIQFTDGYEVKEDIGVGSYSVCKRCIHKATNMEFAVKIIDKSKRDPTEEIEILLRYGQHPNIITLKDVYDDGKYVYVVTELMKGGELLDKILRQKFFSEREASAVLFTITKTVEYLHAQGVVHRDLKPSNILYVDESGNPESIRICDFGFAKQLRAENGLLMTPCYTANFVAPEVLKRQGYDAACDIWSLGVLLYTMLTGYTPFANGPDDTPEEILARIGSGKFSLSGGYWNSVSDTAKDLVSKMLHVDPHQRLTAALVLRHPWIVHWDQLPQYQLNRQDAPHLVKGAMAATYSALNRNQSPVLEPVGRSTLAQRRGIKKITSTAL
Ribosomal protein S6 kinase alpha-5 (Homo sapiens), sequence (O75582 whole entry, looked up): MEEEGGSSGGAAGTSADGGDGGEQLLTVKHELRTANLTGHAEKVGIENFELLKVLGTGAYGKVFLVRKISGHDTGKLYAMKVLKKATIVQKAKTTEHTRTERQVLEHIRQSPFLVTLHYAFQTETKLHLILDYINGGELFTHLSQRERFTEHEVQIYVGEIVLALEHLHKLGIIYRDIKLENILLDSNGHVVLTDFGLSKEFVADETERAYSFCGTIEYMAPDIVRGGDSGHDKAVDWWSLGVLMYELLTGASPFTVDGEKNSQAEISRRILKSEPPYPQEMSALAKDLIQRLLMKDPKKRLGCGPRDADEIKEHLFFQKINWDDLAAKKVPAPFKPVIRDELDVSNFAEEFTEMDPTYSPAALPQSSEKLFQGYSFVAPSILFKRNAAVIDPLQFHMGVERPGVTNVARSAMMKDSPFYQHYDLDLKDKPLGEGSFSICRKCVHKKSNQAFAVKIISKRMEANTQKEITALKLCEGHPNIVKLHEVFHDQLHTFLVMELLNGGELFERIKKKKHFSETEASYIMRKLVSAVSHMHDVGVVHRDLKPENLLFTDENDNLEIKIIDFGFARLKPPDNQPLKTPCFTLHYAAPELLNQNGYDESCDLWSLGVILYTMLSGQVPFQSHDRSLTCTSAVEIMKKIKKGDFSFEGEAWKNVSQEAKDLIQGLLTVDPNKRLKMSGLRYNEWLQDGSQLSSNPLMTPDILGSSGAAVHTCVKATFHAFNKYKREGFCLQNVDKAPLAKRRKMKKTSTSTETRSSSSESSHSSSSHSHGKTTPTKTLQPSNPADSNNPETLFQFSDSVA
MAP/microtubule affinity-regulating kinase 3 (Homo sapiens), sequence (P27448 whole entry, looked up): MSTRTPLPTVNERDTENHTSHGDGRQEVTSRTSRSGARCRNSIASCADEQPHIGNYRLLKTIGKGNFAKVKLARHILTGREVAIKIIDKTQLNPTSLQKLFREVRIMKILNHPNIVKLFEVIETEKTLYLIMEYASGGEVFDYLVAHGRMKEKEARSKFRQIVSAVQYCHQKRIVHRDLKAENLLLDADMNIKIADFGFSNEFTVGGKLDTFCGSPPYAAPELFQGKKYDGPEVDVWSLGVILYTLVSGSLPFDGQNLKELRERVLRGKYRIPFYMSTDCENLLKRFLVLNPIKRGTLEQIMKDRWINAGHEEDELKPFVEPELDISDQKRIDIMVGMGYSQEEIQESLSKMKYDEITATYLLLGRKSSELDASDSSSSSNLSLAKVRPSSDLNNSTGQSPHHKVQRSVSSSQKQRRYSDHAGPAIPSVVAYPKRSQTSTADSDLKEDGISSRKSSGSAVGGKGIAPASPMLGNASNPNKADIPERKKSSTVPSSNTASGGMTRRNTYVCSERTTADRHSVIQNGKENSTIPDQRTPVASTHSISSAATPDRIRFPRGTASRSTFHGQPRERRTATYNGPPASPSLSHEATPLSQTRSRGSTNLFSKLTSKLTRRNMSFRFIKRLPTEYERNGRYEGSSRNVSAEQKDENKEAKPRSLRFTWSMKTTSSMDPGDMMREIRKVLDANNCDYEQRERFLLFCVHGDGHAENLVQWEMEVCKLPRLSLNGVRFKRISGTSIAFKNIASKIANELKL
Proto-oncogene tyrosine-protein kinase Src (Homo sapiens), sequence (P12931 2-536 limits assumed): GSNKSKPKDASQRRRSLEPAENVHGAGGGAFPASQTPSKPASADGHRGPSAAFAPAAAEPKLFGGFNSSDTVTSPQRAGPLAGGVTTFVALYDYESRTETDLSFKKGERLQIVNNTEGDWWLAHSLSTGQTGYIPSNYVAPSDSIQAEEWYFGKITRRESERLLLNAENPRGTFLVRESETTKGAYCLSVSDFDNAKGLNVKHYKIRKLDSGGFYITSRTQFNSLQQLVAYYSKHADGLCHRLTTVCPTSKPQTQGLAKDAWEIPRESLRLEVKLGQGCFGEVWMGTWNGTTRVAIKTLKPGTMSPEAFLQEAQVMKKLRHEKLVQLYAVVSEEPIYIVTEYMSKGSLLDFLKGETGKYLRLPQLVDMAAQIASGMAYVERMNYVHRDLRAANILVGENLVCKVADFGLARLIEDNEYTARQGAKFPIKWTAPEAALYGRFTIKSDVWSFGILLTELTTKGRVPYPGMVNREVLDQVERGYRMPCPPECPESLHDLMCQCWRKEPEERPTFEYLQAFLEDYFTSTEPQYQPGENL
Tyrosine-protein kinase CSK (Homo sapiens), sequence (P41240 2-450 limits assumed): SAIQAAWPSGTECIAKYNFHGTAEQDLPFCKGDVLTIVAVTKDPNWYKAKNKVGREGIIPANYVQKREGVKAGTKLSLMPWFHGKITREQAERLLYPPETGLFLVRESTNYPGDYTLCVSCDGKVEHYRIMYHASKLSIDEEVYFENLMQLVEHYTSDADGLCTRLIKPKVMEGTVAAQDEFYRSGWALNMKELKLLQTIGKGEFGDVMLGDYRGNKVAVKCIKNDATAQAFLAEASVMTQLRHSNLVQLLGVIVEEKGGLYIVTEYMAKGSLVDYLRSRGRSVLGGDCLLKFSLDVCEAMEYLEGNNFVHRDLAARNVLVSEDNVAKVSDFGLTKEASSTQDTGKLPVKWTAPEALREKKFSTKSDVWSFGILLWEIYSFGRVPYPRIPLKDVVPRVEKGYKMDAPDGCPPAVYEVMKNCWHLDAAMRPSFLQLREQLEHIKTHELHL
Ribosomal protein S6 kinase beta-1 (Homo sapiens), sequence (P23443 whole entry, looked up): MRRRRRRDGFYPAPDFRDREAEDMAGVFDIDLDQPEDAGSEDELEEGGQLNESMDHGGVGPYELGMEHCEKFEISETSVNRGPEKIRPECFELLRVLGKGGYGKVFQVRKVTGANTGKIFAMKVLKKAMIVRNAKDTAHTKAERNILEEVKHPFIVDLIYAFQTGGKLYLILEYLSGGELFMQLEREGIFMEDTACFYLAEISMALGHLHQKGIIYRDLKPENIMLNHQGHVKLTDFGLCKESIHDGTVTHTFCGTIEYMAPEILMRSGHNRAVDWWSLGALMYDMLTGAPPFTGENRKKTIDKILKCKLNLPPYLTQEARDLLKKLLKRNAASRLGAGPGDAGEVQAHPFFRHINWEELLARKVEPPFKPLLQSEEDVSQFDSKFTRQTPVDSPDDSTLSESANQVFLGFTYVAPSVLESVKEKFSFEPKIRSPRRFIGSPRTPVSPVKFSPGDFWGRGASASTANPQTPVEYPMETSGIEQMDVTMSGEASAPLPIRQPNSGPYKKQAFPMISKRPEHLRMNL
Maternal embryonic leucine zipper kinase (Homo sapiens), sequence (Q14680 whole entry, looked up): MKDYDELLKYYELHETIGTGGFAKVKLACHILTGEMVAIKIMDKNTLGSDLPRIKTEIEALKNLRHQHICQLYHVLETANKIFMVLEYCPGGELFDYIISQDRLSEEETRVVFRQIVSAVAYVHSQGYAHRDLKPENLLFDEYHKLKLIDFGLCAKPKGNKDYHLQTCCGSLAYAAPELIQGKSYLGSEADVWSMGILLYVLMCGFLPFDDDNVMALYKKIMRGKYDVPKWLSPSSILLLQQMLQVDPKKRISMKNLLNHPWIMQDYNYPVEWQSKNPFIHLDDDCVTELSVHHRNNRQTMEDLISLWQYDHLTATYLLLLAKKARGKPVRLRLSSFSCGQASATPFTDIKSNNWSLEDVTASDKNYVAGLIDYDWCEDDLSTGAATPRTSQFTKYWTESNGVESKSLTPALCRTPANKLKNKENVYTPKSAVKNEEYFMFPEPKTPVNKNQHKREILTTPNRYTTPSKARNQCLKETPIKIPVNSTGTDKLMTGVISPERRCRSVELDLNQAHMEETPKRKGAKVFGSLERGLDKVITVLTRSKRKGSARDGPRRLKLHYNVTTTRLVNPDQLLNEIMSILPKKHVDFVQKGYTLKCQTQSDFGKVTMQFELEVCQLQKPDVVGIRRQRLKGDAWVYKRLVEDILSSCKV

| Structure (SMILES) | Activity [1] [%] | Activity [2] [%] | Activity [3] [%] | Activity [4] [%] | Activity [5] [%] | Activity [6] [%] | Activity [7] [%] | Activity [8] [%] | Activity [9] [%] | Activity [10] [%] | Activity [11] [%] | Activity [12] [%] | Activity [13] [%] | Activity [14] [%] | Activity [15] [%] | Activity [16] [%] | Activity [17] [%] | Activity [18] [%] | Activity [19] [%] | Activity [20] [%] | further results |
| --- | --- | --- | --- | --- | --- | --- | --- | --- | --- | --- | --- | --- | --- | --- | --- | --- | --- | --- | --- | --- | --- |
| CC(=O)Nc1cccc(-c2cnc3[nH]nc(C)c3c2)c1 | 70.8 | 56.9 | 76.1 | 80.5 | 95.3 | 95.3 | 74.3 | 83.3 | 93.8 | 62.6 | 65 | 106 | 93.8 | 73.9 | 78.3 | 76.2 | 104 | 89 | 77.2 | 45.9 | Activity [21]: 69.8%; Activity [22]: 77.3%; Activity [23]: 19.3%; Activity [24]: 38.9%; Activity [25]: 90.6%; Activity [26]: 40.3%; Activity [27]: 70.9%; Activity [28]: 55.9% |
| CC(=O)Nc1nccc(-c2c(-c3ccccc3)noc2C)n1 | 82.7 | 78.2 | 103 | 107 | 82.7 | 93.4 | 82.8 | 92.8 | 85.1 | 94.6 | 98.3 | 101 | 78.7 | 83.2 | 103 | 91.9 | 99.9 | 91.3 | 93.5 | 66.8 | Activity [21]: 99.9%; Activity [22]: 64.9%; Activity [23]: 102%; Activity [24]: 106%; Activity [25]: 108%; Activity [26]: 104%; Activity [27]: 23.4%; Activity [28]: 98.7% |
| CCCC(=O)Nc1n[nH]c2ncc(-c3cccnc3)cc12 | 88 | 54 | 115 | 68 | 70 | 91 | 93 | 94 | 113 | 84 | 75 | 101 | 92 | 61 | 87 | 5 | 81 | 91 | 102 | 103 | Activity [21]: 88%; Activity [22]: 86%; Activity [23]: 91%; Activity [24]: 64%; Activity [25]: 85%; Activity [26]: 5%; Activity [27]: 88%; Activity [28]: 104% |
